From ChEMBL document CHEMBL1146524, “Isolation of homodolastatin 16, a new cyclic depsipeptide from a Kenyan collection of Lyngbya majuscula” (J Nat Prod, 2003)
In brackets after ≈: the same amount, converted by molar mass. Starred links: 1 amine or outer side, 2 acyl side, 3 side chain; linkers in the order of their positions; H or OH if unused. Non-standard residues stand in square brackets, D forms with d. Residues, ends and D or L forms follow the SMILES beside them. X1 = CC(Cc1ccccc1)C(N[*:1])C(=O)[*:2]; X2 = CC(C)C(N[*:1])C(C)C(=O)[*:2]; dNMeV = CN[C@@H](C(=O)O)C(C)C; dHiv = CC(C)[C@@H](O)C(=O)O; Lac = C[C@H](O)C(=O)O

Assays:
KM-20L2 = experiment: Cytotoxicity against human KM20L2 cells after 48 hrs by MTT method; type: functional; details: KM-20L2, 48 h
SF-295 = experiment: Cytotoxicity against human SF295 cells after 48 hrs by MTT method; type: functional; details: SF-295, 48 h
SK-MEL-5 = experiment: Cytotoxicity against human SK-MEL-5 cells after 48 hrs by MTT method; type: functional; details: SK-MEL-5, 48 h
NCI-H460 = experiment: Cytotoxicity against human NCI-H460 cells after 48 hrs by MTT method; type: functional; details: NCI-H460, 48 h
ME-180 = experiment: Cytotoxicity against human ME180 cells after 48 hrs by MTT method; type: functional, cell-based; details: ME-180, 48 h
[1] = Cytotoxicity against human WHCO1 cells after 48 hrs by MTT method; type: functional, cell-based; details: WHCO1, 48 h
[2] = Cytotoxicity against human WHCO6 cells after 48 hrs by MTT method; type: functional, cell-based; details: WHCO6, 48 h

Row | Compound | GI50 (KM-20L2) | GI50 (SF-295) | GI50 (SK-MEL-5) | GI50 (NCI-H460) | IC50 (ME-180) | IC50 [1] | IC50 [2]
1 | CC(C)C1NC(=O)[C@@H]2CCCN2C(=O)C(C(C)Cc2ccccc2)NC(=O)[C@@H]2CCCN2C(=O)[C@@H](C(C)C)N(C)C(=O)[C@@H](C(C)C)OC(=O)[C@@H]2CCCN2C(=O)[C@H](C)OC(=O)C1C (some centres not stated) [DOLASTATIN 16] (cyclo([Lac]P[dHiv][dNMeV]P[X1]P[X2])) | 1.2 ng/mL (≈ 1.37 nM) | 5.2 ng/mL (≈ 5.92 nM) | 3.3 ng/mL (≈ 3.75 nM) | 0.96 ng/mL (≈ 1.09 nM) | – | – | –
2 | CC[C@H](C)[C@H]1C(=O)N2CCC[C@H]2C(=O)NC(C(C)Cc2ccccc2)C(=O)N2CCC[C@H]2C(=O)NC(C(C)C)C(C)C(=O)OC(C)C(=O)N2CCC[C@H]2C(=O)O[C@H](C(C)C)C(=O)N1C (some centres not stated) [HOMODOLASTATIN 16] | – | – | – | – | 8300 ng/mL (≈ 9290 nM) | 4300 ng/mL (≈ 4810 nM) | 10100 ng/mL (≈ 11300 nM)
